Columns and labels:
[1] = system: Hamster Tracheal Organ Culture (keratinization); assay: Reversal of keratinization in hamster tracheal organ culture; type: cell-based
Description: (§1) The ODC assay measures a compound's effect on the prevention of the induction of ODC. The tracheal organ culture assay measures a compound's ability to reverse keratinization.
The tracheal organ culture assay is carried out as follows. Tracheas are taken from hamsters that are in very early stages of vitamin A deficiency and placed in organ culture. At the time of culture, the animals are still gaining weight; the tracheal epithelium is generally low columnar or cuboidal, with only occasional patches of squamous metaplasia. Each trachea is opened from the larynx to the carina along the membranous dorsal wall and cultured in a serum-free medium (CMRL-1066; with crystalline bovine insulin, 0.1 μg/ml; hydrocortisone hemisuccinate, 0.1 μg/ml; glutamine, 2 mM; penicillin, 100 units/ml; and streptomycin,100 μg/ml, added). Cultures are gassed with 50% oxygen, 45% nitrogen, and 5% CO2. The culture dishes are rocked at 35.5-36.0 degrees to allow the tracheas contact with both gas and medium. All tracheas are grown in medium containing no retinoid for the first 3 days. At the end of 3 days, some tracheas are harvested; almost all of these tracheas have significant squamous metaplasia, and approximately 60% have keratinized lesions. The remaining tracheas are then divided into different groups which are treated with either: (1) retinoid dissolved in dimethylsulfoxide (final concentration of DMSO in culture medium is never greater than 0.1%) or (2) an equivalent amount of DMSO alone. Culture medium is changed three times a week, and all of the remaining tracheas are harvested at the end of 10 days in culture. Tracheas are fixed in 10% buffered formalin and embedded in paraffin. Cross sections of five micrometers are made through the mid-portion, stained with hematoxylin and eosin, and then scored with a microscope for the presence of keratin and keratohyaline granules, both of which are found in approximately 90% of control cultures that receive no retinoid for the entire 10 day culture period.

Ornithine Decarboxylase = assay: Inhibition of induction of ornithine decarboxylase (ODC) by 12-O-tetradecanoylphorbol-13-acetate in mouse skin; type: in vivo; conditions: topical, 1 hour before TPA (17 nmol)
Description: as §1
The ODC assay is carried out as follows. Female Charles River CD-1 mice from Charles River Breeding Laboratories, Wilmington, Mass., are used (age 7 to 9 weeks). The dorsal hair of the mice is shaved 1 to 2 days before testing, and only mice showing no hair regrowth are used. A single dose of 12-O-tetradecanoylphorbol-13-acetate (TPA) (10.5 μg, 17 nmol) in 0.2 mL of acetone is applied topically to the back of each mouse. The test compound, at one of three dose levels (1.7, 17, and 170 nmol), dissolved in 0.2 mL of acetone is applied 1 hour before the TPA treatment to the test groups; the control group is treated with acetone alone. The mice are killed by cervical dislocation five hours after TPA treatment. Determinations are done in triplicate.
The epidermis is obtained from the sacrificed animals. To obtain sufficient material, the dorsal skins from 2 to 3 mice in each treatment group are pooled. The depilatory agent Nudit® (Helena Rubinstein, New York) is applied to the shaved area of the skin; after 5 minutes, it is washed off thoroughly with cold tap water. Then the skin is excised and plunged immediately into ice-cold water; it is then placed in a 55° C. water bath for 30 seconds and reimmersed in ice-cold water for at least another 30 seconds. The skin is placed epidermis side up on a cold plate, and the epidermis is scraped off with a razor blade. The pooled epidermal sheets are homogenized (Polytron PT-10 homogenizer) at 0° to 4° C. for 15-20 seconds in 50 mM sodium phosphate buffer (pH 7.2) containing 0.1 mM pyridoxal phosphate and 0.1 mM ethylenediaminetetraacetic acid (EDTA), at a volume of 1 mL/skin.
The supernatant fraction remaining after centrifugation of the homogenate at 10,000×g for 30 seconds at 0° C. is used for the enzyme assay. Enzyme activity is determined using the microassay for ODC as described by Verma and Boutwell to measure the release of ^14 CO2 from DL-[1-^14 C]-ornithine (58 mCi/mmol) after incubation with the 10,000×g supernatant. The incubations are carried out by decanting, with a Pasteur pipette, 100 μL of the supernatant containing 100 to 120 μg of protein into two or three 15-mL Corex tubes in a shaking water bath at 37° C. The assay mixture in the tubes consists of 50 μL of 100 mM sodium phosphate buffer (pH 7.2), 10 μL of 4 mM pyridoxal phosphate, 40 μL of 25 mM dithiothreitol, and 1 μL of 0.1M EDTA. The center wells in the tubes are filled with 200 μL of a 2:1 solution (v/v) of ethanolamine:2-methoxyethanol. The reaction is started by adding 50 μL of substrate (0.5 μCi of DL-[1-^14 C]-ornithine in 2 mM cold ornithine) at 1-minute intervals by injection to each of the stoppered tubes. Incubations are routinely carried out at 37° C. for 30 to 60 minutes. The reaction is stopped by addition of 0.5 ml of 2M citric acid, and incubation is continued for an additional hour without heating to ensure complete absorption of ^14 CO2.
Radioactivity is measured using a toluene-based scintillant (4 g of PPO and 50 mg of POPOP/L of toluene) in a Beckman LS-250 liquid scintillation counter. Enzyme activity is determined in triplicate and expressed as nanomoles of CO2 released in 30 minutes per milligram of protein. Enzyme activity is linear for the protein concentration used. The protein concentrations of the epidermal extracts are determined by the Lowry procedure, using bovine serum albumin as the standard.

SMILES | Reversal of Keratinization, Active/Total Cultures ([1]; Conc 10^-8 M) | Reversal of Keratinization, Active/Total Cultures (%) ([1]; Conc 10^-8 M) | Reversal of Keratinization, Active/Total Cultures ([1]; Conc 10^-9 M) | Reversal of Keratinization, Active/Total Cultures (%) ([1]; Conc 10^-9 M) | Reversal of Keratinization, Active/Total Cultures ([1]; Conc 10^-10 M) | Reversal of Keratinization, Active/Total Cultures (%) ([1]; Conc 10^-10 M) | Reversal of Keratinization, Active/Total Cultures ([1]; Conc 10^-11 M) | Reversal of Keratinization, Active/Total Cultures (%) ([1]; Conc 10^-11 M) | Inhibition of Induction of Ornithine Decarboxylase by TPA, % Inhibition of Control (Ornithine Decarboxylase; Dose 1.7 nmol) [%] | Inhibition of Induction of Ornithine Decarboxylase by TPA, % Inhibition of Control (Ornithine Decarboxylase; Dose 17 nmol) [%]
CC1=C(/C=C/C(C)=C/C=C/C(C)=C/C(=O)OC[C@]2(CO)CO[C@H](c3ccccc3)OC2)C(C)(C)CCC1 [Example 1 (Isomer (3)), (E)-2α-Phenyl-5β-hydroxymethyl-5α-retinoyloxymethyl-1,3-dioxane] | 13/13 | 100 | 18/18 | 100 | 7/19 | 37 | 2/6 | 33 | 47 | 57
CC1=C(/C=C/C(C)=C/C=C/C(C)=C/C(=O)OC[C@]2(CO)CO[C@@H](c3ccccc3)OC2)C(C)(C)CCC1 [Example 1 (Isomer (2)), (E)-2α-Phenyl-5α-hydroxymethyl-5β-retinoyloxymethyl-1,3-dioxane] | 13/13 | 100 | 17/18 | 94 | 9/18 | 50 | 2/6 | 33 | 40 | 49
CC1=C(/C=C/C(C)=C/C=C/C(C)=C/C(=O)OCC(CO)(CO)CO)C(C)(C)CCC1 [Example 2, Pentaerythritol Monoretinoate] | 13/13 | 100 | 15/15 | 100 | 18/25 | 72 | 5/11 | 45 | 35 | 43
